Source: patent US20110053995A1, “BENZENESULFONANILIDE COMPOUND INHIBITORS OF UREA TRANSPORTERS” (THE REGENTS OF THE UNIVERSITY OF CALIFORNIA, priority 2006, published 2011)

Tested on: RBCs from wild-type mice
Test: Osmotic water permeability, RBCs from wild-type mice
Format: cell-based, mouse
Conditions: inhibitors 25 μM, phloretin 0.7 mM, 10° C.
Procedure: FIGS. 8A-B illustrate UT-B-facilitated water transport by ‘chemical UT-B knock-out’. Osmotic water permeability was measured from the time course of RBC volume in response to a 250-mM inwardly directed sucrose gradient. FIG. 8A presents representative traces of mouse RBC water permeability performed at 10° C., with genotypes and conditions indicated. Inhibitors ureainh-201 and ureainh-302 were used at 25 μM. FIG. 8B presents osmotic water permeability coefficients (Pf) from experiments as illustrated in FIG. 8A (±SE, 3-7 curves per group of RBCs pooled from 4 mice per genotype). *, P<0.01 compared with no inhibitor; #, P<0.01 compared with wild-type (no inhibitor).
RBC urea and water permeabilities were assayed by stopped-flow light scattering using a Hi-Tech Sf-51 instrument (Wiltshire, UK). For measurement of urea permeability, dilutions of whole blood (human or mouse; see Example 1) in PBS (hematocrit: approximately 0.5%) were incubated with test compounds for 5 min and then subjected to a 250-mM inwardly directed gradient of urea. After an initial osmotic shrinking phase, the kinetics of increasing cell volume caused by urea influx were measured as the time-course of 90° scattered light intensity at 530 nm, with increasing cell volume resulting in reduced scattered light intensity. As a positive control, 0.7 mM phloretin was added to the RBC suspension prior to stopped-flow experiments. Measurements of water permeability were carried out similarly, with sucrose (cell-impermeant) used instead of urea to establish a 250-mM osmotic gradient. As a positive control, HgCl2 (0.3 mM) was added to the RBC suspension prior to stopped-flow measurements. Osmotic water permeability coefficients (Pf) were computed from light scattering data as described (van Hoek et al., J Biol Chem. 267:18267-69 (1992)).
This example describes chemical knock-out of UT-B by UT-B inhibitors in RBCs and the effect on UT-B-facilitated Water transport. […] Osmotic water permeability was measured by stopped-flow light scattering in RBCs from wild-type and AQP1-null mice as shown in FIG. 8A. […] AQP1-null RBCs had greater than 5-fold reduced Pf compared to wild-type RBCs.

SMILES	effect on water transport
NC(=O)CSc1oc(-c2ccccc2)nc1S(=O)(=O)c1ccc(Br)cc1 [ureainh-101]	little effect on water transport
Cc1ccc(Nc2nnc(-c3ccc(C(N)=O)cc3)c3ccccc23)cc1 [ureainh-302]	little effect on water transport
